Data set [1] is described as follows: Cell toxicity: cell growth inhibition assay in Vero cells (MTT uptake). The format is cell-based. Conditions: monkey, 50% inhibition of cell viability at 96 hours, read-out: CCID50 at 96 hr. The procedure:
Cell toxicity was assessed in a cell growth inhibition assay. Subconfluent cultures of Vero cells grown on 96-well microtiter dishes were exposed to different dilutions of drug, and cell viability determined daily on replicate cultures using uptake of a tetrazolium dye (MTT). The concentration required for a 50% inhibition of cell viability at 96 hours is termed CCID50.

For data set [2], the system named is Herpes simplex type 1 (HSV1). Kind of data set: HSV1 assay in Vero cells (similar to HCMV plaque reduction assay). The data set is classed as cell-based. Conditions: read-out: IC50 HSV1. As for the experimental part: (§1) Human cytomegalovirus (HCMV) was assayed in monolayers of either MRC5 cells (human embryonic lung) or Detroit 532 cells (human foreskin fibroblasts) in multiwell trays. Activity of compounds was determined in the plaque reduction assay, in which a cell monolayer was infected with a suspension of HCMV, and then overlaid with nutrient agarose in the form of a gel to ensure that there was no spread of virus throughout the culture. A range of concentrations of compound of known molarity was incorporated in the nutrient agarose overlay. Plaque numbers at each concentration were expressed as percentages of the control and a dose-response curve was drawn. From this curve the 50% inhibitory concentration (IC50) was estimated.
Herpes simplex type 1 (HSV1) was assayed in Vero cells in a similar method to that described for the HCMV assay.
Background: In a plaque reduction assay, fewer plaques than in the control indicate reduced infectivity or spread.

The subject of data set [3] is Varicella zoster virus (VZV). Kind of data set: VZV assay in MRC5 cells (similar to HCMV plaque reduction, without agarose overlay). The data set is classed as cell-based. The procedure: as §1
Varicella zoster virus (VZV) was assayed in MRC5 cells by a similar method to that for HCMV with the omission of the agarose overlay.

Data set [4] relates to Human cytomegalovirus (HCMV). Kind of data set: HCMV plaque reduction assay in MRC5 or Detroit 532 cells. The format is cell-based. Conditions: Human betaherpesvirus 5, MRC5, MRC5 or Detroit 532 cells. As for the experimental part:
as §1

The test system of the next data set is certain DNA viruses. Kind of data set: Antiviral activity against certain DNA viruses (general statement). The settings on record: DNA viruses other than vaccinia and herpes simplex.
Another data set has as its system herpes simplex viruses. Conditions: Walker et al. 1978; UK 1 601 020; cited from earlier work.
A further data set relates to vaccinia. Conditions: Walker et al. 1978; UK 1 601 020; cited from earlier work.
Where [5] appears, read: Human alphaherpesvirus 1, Vero cells.
[6] abbreviates: Human alphaherpesvirus 3, MRC5, MRC5 cells, read-out: IC50 VZV.

The source of these data is patent publication US4863906A, “2'-deoxy-5-ethynyluridine-3',5'-diestens for treatment of VZV and CMV infections” (Burroughs Wellcome Co., priority 1985, dated 1989).

Where two headings read alike, the source gives them in different places. Where only a bound is given, the exact number is not on record here.

A word on the IC50: it is the concentration that gives 50% inhibition. For `C#Cc1cn([C@H]2C[C@H](OC(=O)c3ccc(C)cc3)[C@@H](COC(=O)c3ccc(C)cc3)O2)c(=O)[nH]c1=O` [p-Toluoyl/p-Toluoyl, 2'-Deoxy-3',5'-di-O-p-toluoyl-5-ethynyluridine], the CC50 at 96 h in data set [1] (vero cells) is over 100 µM. Further, the IC50 in data set [2] (setting [5]) and in data set [3] (setting [6]) was over 20 µM each time.

With `C#Cc1cn([C@H]2C[C@H](OC(C)=O)[C@@H](COC(C)=O)O2)c(=O)[nH]c1=O` [Acetyl/Acetyl, 2'-Deoxy-3'-5'-di-O-acetyl-5-ethynyluridine], in data set [2] (setting [5]), the IC50 is over 20 µM.

Take `C#Cc1cn([C@H]2C[C@H](OC(=O)c3ccccc3)[C@@H](COC(=O)c3ccccc3)O2)c(=O)[nH]c1=O` [Benzoyl/Benzoyl, 2'-Deoxy-3',5'-di-O-benzoyl-5-ethynyluridine]: the CC50 at 96 h in data set [1] (vero cells) was over 100 µM. Also, the IC50 was 4.7 µM in data set [4], over 20 µM in data set [2] (setting [5]) and over 20 µM in data set [3] (setting [6]).

Consider `C#Cc1cn([C@H]2C[C@H](OC(=O)C(C)(C)C)[C@@H](COC(=O)C(C)(C)C)O2)c(=O)[nH]c1=O` [Pivaloyl/Pivaloyl, 2'-Deoxy-5-ethynyl-3',5'-di-O-pivaloyl uridine], for which the CC50 at 96 h in data set [1] (vero cells) was over 100 µM. Besides, the IC50 in data set [4] was 2 µM; in data set [2] (setting [5]), over 20 µM; in data set [3] (setting [6]), 5.5 µM.

On to `C#Cc1cn([C@H]2C[C@H](OC(=O)C3CC3)[C@@H](COC(=O)C3CC3)O2)c(=O)[nH]c1=O` [Cyclopropanoyl/Cyclopropanoyl, 2'-Deoxy-3',5'-di-O-cyclopropanoyl-5-ethynyluridine], for which the CC50 at 96 h in data set [1] (vero cells) is over 100 µM. The 50% inhibitory concentration (IC50) in data set [4] is 2 µM; in data set [2] (setting [5]) it was over 20 µM; in data set [3] (setting [6]), 24 µM.

In the case of `C#Cc1cn([C@H]2C[C@H](O)[C@@H](COS(=O)(=O)c3ccc(C)cc3)O2)c(=O)[nH]c1=O` [H/p-Tosyl], the 50% inhibitory concentration (IC50) in data set [4] was 5.6 µM.

Turning to `C#Cc1cn([C@H]2C[C@H](O)[C@@H](COC(=O)c3cccc(Cl)c3)O2)c(=O)[nH]c1=O` [H/m-Cl Benzoyl], the CC50 at 96 h in data set [1] (vero cells) came to 19 µM. Besides, the values for the IC50 in data set [4] and in data set [3] (setting [6]) were 0.46 µM and under 0.2 µM, respectively.

Take `C#Cc1cn([C@H]2C[C@H](O)[C@@H](COC(=O)C3CC3)O2)c(=O)[nH]c1=O` [H/Cyclopropanoyl, 5'-O-Cyclopropanoyl-2'-deoxy-5-ethynyluridine]: the CC50 at 96 h in data set [1] (vero cells) came to 15 µM. In addition, the IC50 is 0.9 µM in data set [4], over 20 µM in data set [2] (setting [5]) and 6.5 µM in data set [3] (setting [6]).

As to `C#Cc1cn([C@H]2C[C@H](O)[C@@H](COC(=O)C(C)(C)C)O2)c(=O)[nH]c1=O` [H/Pivaloyl, 2'-Deoxy-5-ethynyl-5'-O-pivaloyluridine], in data set [1] (vero cells), the CC50 at 96 h came out at 10.2 µM. Moreover, the IC50 is 0.4 µM in data set [4], over 20 µM in data set [2] (setting [5]) and 0.6 µM in data set [3] (setting [6]).

Turning to `C#Cc1cn([C@H]2C[C@H](OC(=O)c3cccc(Cl)c3)[C@@H](COC(=O)c3cccc(Cl)c3)O2)c(=O)[nH]c1=O` [m-Cl Benzoyl/m-Cl Benzoyl], the CC50 at 96 h in data set [1] (vero cells) is over 100 µM. The results for the IC50 in data set [4] and in data set [3] (setting [6]) were 2.7 µM and 1.1 µM, respectively.

In the case of `C#Cc1cn([C@H]2C[C@H](O)[C@@H](CO)O2)c(=O)[nH]c1=O` [H/H, 2'-Deoxy-5-ethynyluridine], the CC50 at 96 h in data set [1] was in the range of 0.3 to 3 µM. The “Activity against certain DNA viruses” value in the data set with certain DNA viruses was “very potent activity”. Moreover, the “Activity against herpes simplex viruses” value in the data set with herpes simplex viruses was “only moderate activity”. Besides, the Activity against vaccinia entry in the data set on vaccinia is listed as “only moderate activity”. Besides, the IC50 in data set [2] (Human alphaherpesvirus 1, Vero) was 4.5 µM; in data set [3] (Human alphaherpesvirus 3, MRC5, read-out: IC50 VZV), 0.06 to 0.3 µM.

`C#Cc1cn([C@H]2C[C@H](O)[C@@H](COC(=O)CCCCCCC)O2)c(=O)[nH]c1=O` [H/Octanoyl, 2'-Deoxy-5-ethynyl-5'-O-octanoyluridine]: in data set [1] (vero cells), the CC50 at 96 h was determined as 1.8 µM. Besides, the IC50 in data set [4] was 2.2 µM; in data set [3] (setting [6]), under 0.2 µM.

Turning to `C#Cc1cn([C@H]2C[C@H](O)[C@@H](COC(=O)c3ccc(OC)cc3)O2)c(=O)[nH]c1=O` [H/p-Anisoyl, 5'-O-p-Anisoyl-2'-Deoxy-5-ethynyluridine], the CC50 at 96 h in data set [1] (vero cells) was determined as 3 µM. Further, the results for the IC50 in data set [4], in data set [2] (setting [5]) and in data set [3] (setting [6]) were 2.8 to 3.7 µM, over 20 µM and over 20 µM, respectively.

On to `C#Cc1cn([C@H]2C[C@H](OC(=O)c3ccc(OC)cc3)[C@@H](COC(=O)c3ccc(OC)cc3)O2)c(=O)[nH]c1=O` [p-Anisoyl/p-Anisoyl, 2'-Deoxy-3',5'-di-O-p-anisoyl-5-ethynyluridine], for which the CC50 at 96 h in data set [1] (vero cells) was over 100 µM. For the same compound, the IC50 in data set [4] is 20.7 µM; in data set [2] (setting [5]) it was over 20 µM; in data set [3] (setting [6]), over 20 µM.

Turning to `C#Cc1cn([C@H]2C[C@H](O)[C@@H](COC(=O)c3ccc(C)cc3)O2)c(=O)[nH]c1=O` [H/p-Toluoyl, 2'-Deoxy-5-ethynyl-5'-O-toluoyluridine], the CC50 at 96 h in data set [1] (vero cells) stood at 0.8 µM. Besides, the IC50 in data set [4] was 3.4 µM; in data set [2] (setting [5]), over 20 µM; in data set [3] (setting [6]), over 20 µM.

As for `C#Cc1cn([C@H]2C[C@H](O)[C@@H](COC(=O)c3ccccc3)O2)c(=O)[nH]c1=O` [H/Benzoyl, 5'-O-Benzoyl-2'-deoxy-5-ethynyluridine], the CC50 at 96 h in data set [1] (vero cells) is 1.3 µM. Further, the values for the IC50 in data set [4], in data set [2] (setting [5]) and in data set [3] (setting [6]) were 0.3 µM, over 20 µM and 0.7 µM, respectively.

For `C#Cc1cn([C@H]2C[C@H](OS(C)(=O)=O)[C@@H](COS(C)(=O)=O)O2)c(=O)[nH]c1=O` [Methanesulphonyl/Methanesulphonyl, 2'-Deoxy-3'-5'-di-O-methanesulphonyl-5-ethynyluridine], the IC50 in data set [4] is over 50 µM; in data set [2] (setting [5]), over 20 µM; in data set [3] (setting [6]) it was 16 µM.
